Values quoted from earlier work in patent US20180055935A1, “METHOD FOR THE PRODUCTION OF A FORMULATION OF A HYPERICIN SALT” (Sanochemia Pharmazeutika AG, priority 2015, published 2018).

System: bladder carcinoma
Details: hypericin 30 μM using polyethylene glycol, 595 nm, 25 up to 50 mW/cm^2

For `Cc1cc(O)c2c(=O)c3c(O)cc(O)c4c5c(O)cc(O)c6c(=O)c7c(O)cc(C)c8c1c2c(c34)c(c78)c65` [hypericin, 1,3,4,6,8,13-hexahydroxy-10, 11-dimethylphenanthro (1,10,9,8-opqra)perylene-7, 14-dione], the tumor cells killed is given as “up to 98%”.
